Experimental findings from PubChem BioAssay (NCI) are described below.

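In this assay, cells in 96-well plates receive the compound at five concentrations for 48 hours. Endpoints are linearly interpolated between the surrounding concentrations. TGI: total growth inhibition.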

Among the test systems are DMS 114 small cell lung; DMS 273 small cell lung; HOP-62 NSCLC; SNB-19 CNS; DLD-1 colon; XF 498 CNS; KM20L2 colon; RXF-631 renal; HOP-18 NSCLC; M19-MEL melanoma; SNB-78 CNS; SN12C renal; LXFL 529 NSCLC; ACHN renal; PC-3 prostate; DU-145 prostate; HS 578T breast; NCI/ADR-RES ovarian.
What all share (experiment): inhibition of tumour cell growth, NCI panel, 48 h

For `CC#C[I+]c1ccccc1`, the TGI was 26.3 µM with DMS 114 small cell lung; 27.8 µM in the experiment with DMS 273 small cell lung; 96.6 µM with HOP-62 NSCLC; over 100 µM in the experiment with SNB-19 CNS; 30.2 µM in the experiment on DLD-1 colon; 33.5 µM in the experiment on XF 498 CNS. The TGI is 36.1 µM in the experiment on KM20L2 colon; over 100 µM in the experiment with RXF-631 renal; 34.4 µM in the experiment on HOP-18 NSCLC; 45 µM in the experiment on M19-MEL melanoma; 54.5 µM with SNB-78 CNS; 25.6 µM in the experiment on SN12C renal. Further, the TGI turned out to be 27.1 µM with LXFL 529 NSCLC and 32 µM in the experiment on ACHN renal.

In the case of `COc1ccc([C@H]2CC(=O)NCCCCN2)cc1`, the TGI with DMS 114 small cell lung, in the experiment on DMS 273 small cell lung, in the experiment with HOP-62 NSCLC, in the experiment with SNB-19 CNS, with DLD-1 colon and in the experiment on XF 498 CNS was over 100 µM in each case. Moreover, the TGI with KM20L2 colon, in the experiment on HOP-18 NSCLC, in the experiment with M19-MEL melanoma, in the experiment on SNB-78 CNS, with SN12C renal and with LXFL 529 NSCLC was over 100 µM each time. Besides, the TGI in the experiment on ACHN renal was over 100 µM.

Consider `O=C(O)CC/C(=N\Nc1nsc2ccccc12)c1ccc(Cl)cc1`, for which the TGI in the experiment with DMS 114 small cell lung is over 100 µM; in the experiment on DMS 273 small cell lung, 41.2 µM; with HOP-62 NSCLC, over 63.5 µM; in the experiment with SNB-19 CNS, over 100 µM; with KM20L2 colon, over 100 µM; in the experiment with PC-3 prostate, over 100 µM. Moreover, the TGI with DU-145 prostate was over 100 µM; with HOP-18 NSCLC it was 52 µM; in the experiment with M19-MEL melanoma, over 100 µM; in the experiment with SNB-78 CNS it was over 100 µM; in the experiment on HS 578T breast it was over 100 µM; with SN12C renal, 57.7 µM. For the same compound, the TGI in the experiment with LXFL 529 NSCLC was 41.1 µM; in the experiment on ACHN renal, over 80.6 µM.

Take `CC(C)NCC(O)c1ccc(OCc2ccccc2)c(OCc2ccccc2)c1-c1ccccc1` (configuration not stated): the TGI in the experiment with HOP-62 NSCLC worked out at 3.25 µM; in the experiment on SNB-19 CNS it was 4.07 µM; in the experiment with NCI/ADR-RES ovarian, 3.73 µM; in the experiment with PC-3 prostate, 3.11 µM; in the experiment with DU-145 prostate, 3.14 µM; with HS 578T breast, 2.74 µM. The TGI with SN12C renal was found to be 3.13 µM; with ACHN renal, 3.06 µM.

In the case of `COP1(=O)Oc2ccccc2C(=O)C(C(F)(F)F)(C(F)(F)F)O1` (configuration not stated), the TGI in the experiment with DMS 114 small cell lung, in the experiment with DMS 273 small cell lung, in the experiment on HOP-62 NSCLC, in the experiment with SNB-19 CNS, with DLD-1 colon and with XF 498 CNS was over 100 µM in each case. In addition, the TGI in the experiment with KM20L2 colon, in the experiment on M19-MEL melanoma, in the experiment on SN12C renal, with LXFL 529 NSCLC and with ACHN renal was over 100 µM each time.

As to `CN(C)c1ccc(/C=C(\NC(=O)c2ccccc2)C2NC(Cc3c[nH]c4ccccc34)C(=O)O2)cc1` (configuration not stated), the TGI in the experiment on HOP-62 NSCLC is over 100 µM; in the experiment on SNB-19 CNS, over 100 µM; in the experiment on NCI/ADR-RES ovarian, over 100 µM; in the experiment on PC-3 prostate, over 100 µM; with DU-145 prostate, over 100 µM; in the experiment on HS 578T breast it was over 54.9 µM. For the same compound, the TGI in the experiment on SN12C renal and in the experiment on ACHN renal was over 100 µM each time.

As for `CC(C)NC(=O)OCc1c(COC(=O)NC(C)C)n(C)c2c1ccc1ccccc12`, the TGI in the experiment on HOP-62 NSCLC was 16.2 µM; in the experiment with SNB-19 CNS, 3.74 µM; in the experiment on NCI/ADR-RES ovarian, 7.39 µM; with PC-3 prostate, 17.1 µM; with DU-145 prostate, 14.4 µM; in the experiment on HS 578T breast it was 7.12 µM. Further, the TGI in the experiment on SN12C renal was determined as 5.3 µM; in the experiment on ACHN renal it was 2.82 µM.

Turning to `CN(CCCCN(C)CCc1ccc(Cl)c(Cl)c1)CCCCN1CCCC1`, the TGI in the experiment with HOP-62 NSCLC was 3.74 µM; in the experiment on SNB-19 CNS, 5.23 µM; in the experiment on NCI/ADR-RES ovarian, 13.4 µM; with PC-3 prostate it was 4.52 µM; with DU-145 prostate, 8.92 µM; in the experiment with HS 578T breast it was 3.23 µM. Also, the values for the TGI in the experiment on SN12C renal and in the experiment with ACHN renal were 4.01 µM and 3.64 µM, respectively.

As for `COc1cc2c(c3c1c(=O)c1ccccc1n3C)C=CC1(CCCCC1)O2`, the TGI is over 9.54 µM with HOP-62 NSCLC; over 10 µM in the experiment on SNB-19 CNS; over 10 µM in the experiment on NCI/ADR-RES ovarian; over 10 µM in the experiment on PC-3 prostate; over 10 µM with DU-145 prostate; 7.49 µM in the experiment on HS 578T breast. Also, the TGI in the experiment on SN12C renal and in the experiment with ACHN renal was over 10 µM throughout.

Take `CC(C)n1c2c([n+](C)c1/C=C/c1ccccc1)C(=O)c1ccccc1C2=O`: the TGI was 0.0439 µM in the experiment on DMS 114 small cell lung; 0.341 µM in the experiment with DMS 273 small cell lung; 1.61 µM with HOP-62 NSCLC; 0.784 µM in the experiment on SNB-19 CNS; 3.79 µM in the experiment on DLD-1 colon; 1.31 µM with KM20L2 colon. Further, the TGI was over 100 µM in the experiment on NCI/ADR-RES ovarian; 0.726 µM with PC-3 prostate; 0.948 µM in the experiment with DU-145 prostate; 0.321 µM in the experiment with M19-MEL melanoma; 0.413 µM in the experiment with SNB-78 CNS; 7.8 µM with HS 578T breast. For the same compound, the results for the TGI with SN12C renal, with LXFL 529 NSCLC and in the experiment with ACHN renal were 0.169 µM, 0.788 µM and 10.9 µM, respectively.

Consider `O=C(OC(=C(c1ccccc1)c1ccccc1)N1CCCC1=S)C(c1ccccc1)c1ccccc1`, for which the TGI in the experiment on HOP-62 NSCLC, in the experiment on SNB-19 CNS, in the experiment on NCI/ADR-RES ovarian, with PC-3 prostate, in the experiment with DU-145 prostate and in the experiment on HS 578T breast was over 10 µM in each case. In addition, the TGI in the experiment on SN12C renal and in the experiment with ACHN renal was over 10 µM each time.

Take `O=C1C=C(NCCc2cc(Br)c(O)c(Br)c2)C(=O)c2ncccc21`: the TGI turned out to be 3.59 µM in the experiment with HOP-62 NSCLC; 8.77 µM in the experiment on SNB-19 CNS; 27.5 µM in the experiment on NCI/ADR-RES ovarian; 27.1 µM in the experiment on PC-3 prostate; 2.99 µM in the experiment with DU-145 prostate; 8.77 µM in the experiment on HS 578T breast. The TGI in the experiment on SN12C renal is 2.95 µM; in the experiment on ACHN renal it was 22 µM.

Turning to `c1ccc2c(c1)Nc1nc3nonc3nc1N2`, the TGI in the experiment with HOP-62 NSCLC, with SNB-19 CNS, in the experiment with NCI/ADR-RES ovarian, in the experiment with PC-3 prostate, with DU-145 prostate and with HS 578T breast was over 100 µM in each case. Moreover, the TGI with SN12C renal and in the experiment with ACHN renal was over 100 µM throughout.

For the compound `CCOC(=O)CCC(NC(=O)Cc1ccc(Oc2nc3ccccc3nc2-c2cccs2)cc1)C(=O)OCC` (configuration not stated), the TGI in the experiment with HOP-62 NSCLC is 11.8 µM; in the experiment with SNB-19 CNS, 37.2 µM; in the experiment on NCI/ADR-RES ovarian, over 100 µM; in the experiment with PC-3 prostate, over 100 µM; in the experiment with DU-145 prostate it was over 100 µM; with HS 578T breast it was 81.1 µM. Moreover, the TGI in the experiment on SN12C renal was over 100 µM; with ACHN renal, 18.3 µM.

Turning to `COc1cc([N+](=O)[O-])ccc1NC1=CC(=O)CCC1`, the TGI with HOP-62 NSCLC, in the experiment with SNB-19 CNS, in the experiment on NCI/ADR-RES ovarian, in the experiment on PC-3 prostate, with DU-145 prostate and in the experiment with HS 578T breast was over 100 µM in each case. The TGI with SN12C renal and in the experiment with ACHN renal was over 100 µM throughout.
